Data set [1] relates to guinea pigs. Briefly: Pharmacodynamic study, pin prick test after intracutaneous injection of 4 formulations. Type of data set: in vivo. The following applies: 1.5 mg ropivacaine with or without 0.2 μg L-DEX in the same injection.
Procedure: The guinea pigs were housed in a holding room which operated on a 12-hr light/12-hr dark circadian cycle with free access to water and food.
Four guinea pigs were used in this study and each guinea pig received 4 intracutaneous injections of 4 different formulations on its back to create 4 individual wheals respectively (i.e., 4 wheals per formulation), as illustrated in FIG. 3A. […] Briefly, 339.0 mg of DMPC, 96.7 mg of cholesterol and 200.0 mg of ropivacaine were dissolved in 10 mL of tert-butanol and lyophilized. The lyophilized cake was hydrated with a 50 mM histidine solution, pH 6, to form multilamellar vesicles (MLVs) with entrapped ropivacaine (liposomal ropivacaine composition), and the concentration of ropivacaine was diluted to 15.0 mg/mL with 9.4% sucrose solution. The anesthesia effect of ropivacaine was assessed at 30 minutes (0.5 hour), 1.0, 1.5, 2.0, 2.5, 3.0, 3.5, 4.0, 5.0, 6.0, 7.0, 8.0, 10 and 24 hours post-injection. The anesthetic effect was determined by observing the guinea pig's response to stimuli around individual wheals (pin prick test). PD data obtained from the pin prick tests were analyzed using an inhibitory effect sigmoid Emax model in PKSolver (Comput Methods Programs Biomed. 2010; 99(3):306-314).
Data set [2] has as its system guinea pigs. The experiment in a line: Pharmacodynamic study, pin prick test with L-DEX or saline injected intramuscularly at a distant site. The following applies: 1.5 mg ropivacaine intracutaneous, IM saline or 2.0 μg/kg L-DEX outside the pin prick area. In kind it is in vivo. The protocol:
Four guinea pigs were used in this study and was divided into two groups (Groups A and B). […] Each guinea pig in Group A and Group B received 4 intracutaneous injections on its back. Of the 4 intracutaneous injections, 2 injections delivered 1.5 mg of free ropivacaine each and the other two injections delivered 1.5 mg of liposomal ropivacaine composition each. The anesthetic effect of ropivacaine was assessed at 30 minutes (0.5 hour), 1.0, 1.5, 2.0, 2.5, 3.0, 3.5, 4.0, 5.0, 6.0, 7.0, 8.0 and 10 hours post-injection. The anesthetic effect was determined by observing the guinea pig's response to stimuli around individual wheals (i.e., pin prick test). PD data obtained from the pin prick tests was analyzed using an inhibitory effect sigmoid Emax model in PKSolver (Comput Methods Programs Biomed. 2010; 99(3):306-314).

The conditions of data set [3]: plasma free dialysis bag, within 2 hours. The protocol: Two in vitro release systems were used in the study, the first system was the plasma free environment and the second system was the human plasma environment. […] Each dialysis bag was immersed in 20 mL of PBS at pH 7.4 in a 50-mL centrifuge tube and incubated at 37±1° C. water bath for 168 or 72 hours. At designated time points after incubation (1, 2, 4, 6, 24, 50, 72, 100 and 168 hours of first system and 1, 2, 4, 8, 24, 48 and 72 hours of second system), 1.0 mL aliquot from the 20-mL PBS was sampled and 1.0 mL of fresh PBS was added to replenish the sampling aliquot. Drug concentrations of the sampled aliquots at each time point were analyzed using HPLC to create the in vitro release profile of the tested formulations.

The nature of another data set: in vivo. The following applies: rat. The protocol:
The rats were housed in a holding room which operated on a 12-hr light/12-hr dark circadian cycle with free access to water and food.
The rats were divided into two groups (n=4 in each group), one group received intramuscular (IM) injection of 100 μg/kg of free dexmedetomidine hydrochloride, prepared by dissolving the dexmedetomidine hydrochloride in 9.4% sucrose solution with a final concentration of 250 μg/mL. The other group received IM injection of 106 μg/kg of liposomal dexmedetomidine hydrochloride, prepared according to Example 1. Blood samples were collected at 15, 30 min, 1, 2, 4, 8, 24, 48, and 72 hours post-injection. Plasma samples were obtained by centrifugation, kept frozen at −80° C. and analyzed using liquid chromatography-tandem mass spectrometry. The plasma concentrations versus time curves were analyzed using a noncompartmental analysis model in PKSolver (Comput. Methods Programs Biomed. 2010; 99(3):306-314).

Setting [4] is: female, Sprague-Dawley, im, 100 ug/kg.

One may read the AUC(0-inf) as total exposure, with the tail of the curve extrapolated. A low value points to low exposure. As a reminder, the AUC(0-t) is exposure summed from dosing to a finite time, without extrapolation to infinity. Usually Cmax stands for the highest concentration seen after dosing. What is called half-life is the time needed for the level to fall by half in the phase considered. Lower therefore signals rapid decline.

Counter-ions that a name gives are not always drawn.

Turning to `CCCN1CCCC[C@H]1C(=O)Nc1c(C)cccc1C` [Free Ropivacaine, ropivacaine hydrochloride monohydrate], in the data set on guinea pigs [1], the “TE50 (time to half maximal effect)” value is listed as 4.5 h. In the data set on guinea pigs [2], the Non-response time was found to be 0.5 h and the TE50 is reported as 1.6 h.
In the case of `Cc1cccc([C@H](C)c2cnc[nH]2)c1C` [Free Dexmedetomidine, dexmedetomidine hydrochloride], in data set [3], the dexmedetomidine released is recorded as around 100%. In the data set “in vivo” (setting [4]), this molecule showed an AUC(0-inf) of 35.1 ng·h/mL, an AUC(0-t) of 31.4 ng·h/mL, a Cmax of 11 ng/mL and a half-life of 2.36 h. The “dexmedetomidine released as indicated by AUC0-t” value in the data set “in vivo” (female, Sprague-Dawley, im, 8 h) was found to be 100%. In addition, the “dexmedetomidine in the plasma of rats” value in the data set “in vivo” is “undetectable”.

Source of the values: patent US12629354B2, “Sustained-release pharmaceutical compositions comprising of a sedative drug and uses thereof” (TAIWAN LIPOSOME CO., LTD., priority 2018, dated 2026).
